Experimental data from patent US10179816B2, “Pharmaceutical compositions comprising an antibody which binds the human anti-Müllerian hormone receptor type II” (LABORATOIRE FRANCAIS DU FRACTIONNEMENT DES BIOTECHNOLOGIES, priority 2011, dated 2019).
“And” between values parts separate entries of the source, which are not always exact repeats. Equal values may be shown once. “Also recorded” adds a separate entry of the source.

Test system: Cov434-AMHRII Asc1a5 tumour cells (a cell line of human ovarian cancer)
Assay: Anti-tumour activity of 3C23K alone or with paclitaxel in Cov434-AMHRII Asc1a5 xenograft (tumour volume, T/C ratio, statistical analysis);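 note: subcutaneous Cov434-AMHRII Asc1a5 xenografts in female Swiss nude mice, tumour volume from length×width×height/2 in mm^3, randomized D13, dosing from D14, 8 mice per group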
Settings: for Individual tumour volume: individual mice
[1] = D13, contrast vs paclitaxel 15 mg/kg q7d4
[2] = D20, contrast vs paclitaxel 15 mg/kg q7d4
[3] = D24, contrast vs paclitaxel 15 mg/kg q7d4
[4] = D27, contrast vs paclitaxel 15 mg/kg q7d4
[5] = D31, contrast vs paclitaxel 15 mg/kg q7d4
[6] = D35, contrast vs paclitaxel 15 mg/kg q7d4
[7] = D41, contrast vs paclitaxel 15 mg/kg q7d4
[8] = Day 13, randomization, before treatment

Method: Female Swiss nude mice (Harlan Laboratories) were injected subcutaneously (s.c.) with 7.10^6 cells of Cov434-AMHRII Asc1a5 (cell line of human ovarian cancer transfected with cDNA AMHRII) in Matrigel (1:1 ratio) under a volume of 150 μL on day 0 (D0).
The mice were randomized on D13, when the volume of the tumours was between 58 and 150 mm^3, and the treatments began on D14 (8 mice per group).
The tumours were usually measured twice weekly. Tumour volume (TV) was calculated using the following formula, in which the length corresponds to the largest of the tumour diameters, the width corresponds to the smallest of the tumour diameters and the tumour height: TV (mm^3)=(length×width×height)/2.
In addition, for each group, curves of tumour growth were plotted using the calculated mean tumour volumes or the median tumour volumes.
The animals were sacrificed when the tumour volumes reached 2000 mm^3 or for ethical reasons. The curves of mean values and median values as well as the statistical analyses were stopped when 20% of the mice in the group were dead.
In one experiment with 8 mice per group, the curves and analyses were stopped when fewer than 7 values per group had been obtained (7 mice alive).
The statistical differences between the different groups were analysed by ANOVA comparison using the Statgraphics centurion XV software.
The ANOVA table breaks down the variance into two components: an inter-group component and an intra-group component. The ratio F is the ratio of the inter-group estimate to the intra-group estimate. When the P value of test F is greater than or equal to 0.05, there is no statistically significant difference between the mean values of the two groups, with a confidence level of 95%. P values less than 0.05 indicate a significant difference between the mean values of the two groups with a confidence level of 95%.
A Kruskal-Wallis test was also carried out. When the P value is greater than or equal to 0.05, there is no statistically significant difference between the median of the two groups, with a confidence level of 95%. P values less than 0.05 indicate a significant difference between the medians of the two groups with a confidence level of 95%.
The treatment is initiated on day 14 after injection.

Question: Which results are given for “3C23K: mutated humanized 12G4 monoclonal antibody binding AMHR-II, produced by the 3C23K clone; light chain SEQ ID NO: 11, heavy chain SEQ ID NO: 13”?
Answer: ANOVA F-ratio (D13, contrast vs control): 0.00; Kruskal-Wallis Test (D13, contrast vs control): 0.00; ANOVA F-ratio [1]: 0.11; Kruskal-Wallis Test [1]: 0.03; ANOVA F-ratio (D20, contrast vs control): 5.33; Kruskal-Wallis Test (D20, contrast vs control): 4.44; ANOVA F-ratio [2]: 9.54; Kruskal-Wallis Test [2]: 6.39; Statistical analysis of tumour volume (in words) (D20 to D41): significant anti-tumour activity; also recorded: significantly different from that of paclitaxel in monotherapy; ANOVA F-ratio (D24, contrast vs control): 9.83; Kruskal-Wallis Test (D24, contrast vs control): 4.41; ANOVA F-ratio [3]: 8.53; Kruskal-Wallis Test [3]: 8.70; ANOVA F-ratio (D27, contrast vs control): 8.21; Kruskal-Wallis Test (D27, contrast vs control): 4.87; ANOVA F-ratio [4]: 8.92; Kruskal-Wallis Test [4]: 8.66; ANOVA F-ratio (D31, contrast vs control): 10.00; Kruskal-Wallis Test (D31, contrast vs control): 4.86; ANOVA F-ratio [5]: 8.01; Kruskal-Wallis Test [5]: 8.66; ANOVA F-ratio (D35, contrast vs control): 8.26; Kruskal-Wallis Test (D35, contrast vs control): 5.11; ANOVA F-ratio [6]: 10.47; Kruskal-Wallis Test [6]: 8.65; ANOVA F-ratio (D41, contrast vs control): 11.82; Kruskal-Wallis Test (D41, contrast vs control): 5.36; ANOVA F-ratio [7]: 12.64; Kruskal-Wallis Test [7]: 7.71; Mean tumour volume [8]: 92 mm^3; Median tumour volume [8]: 89 mm^3; Individual tumour volume (Day 13): 144 mm3 and 98 mm3 (2×) and 90 mm3 and 76 mm3 and 73 mm3; Mean tumour volume (Day 20): 111 mm^3; Median tumour volume (Day 20): 107 mm^3; Individual tumour volume (Day 20): 105 mm3 and 135 mm3 and 88 mm3 and 140 mm3 and 150 mm3 and 60 mm3; Mean tumour volume (Day 24): 97 mm^3; Median tumour volume (Day 24): 93 mm^3; Individual tumour volume (Day 24): 158 mm3 and 180 mm3 and 0 mm3 and 102 mm3 and 114 mm3 and 68 mm3; Mean tumour volume (Day 27): 144 mm^3; Median tumour volume (Day 27): 129 mm^3; Individual tumour volume (Day 27): 252 mm3 and 289 mm3 and 0 mm3 and 192 mm3 and 168 mm3 and 72 mm3; Mean tumour volume (Day 31): 153 mm^3; Median tumour volume (Day 31): 162 mm^3; Individual tumour volume (Day 31): 184 mm3 and 404 mm3 and 0 mm3 and 204 mm3 and 198 mm3 and 68 mm3; Mean tumour volume (Day 35): 310 mm^3; Median tumour volume (Day 35): 317 mm^3; Individual tumour volume (Day 35): 366 mm3 and 592 mm3 and 0 mm3 and 488 mm3 and 528 mm3 and 122 mm3; Mean tumour volume (Day 41): 429 mm^3; Median tumour volume (Day 41): 467 mm^3; Individual tumour volume (Day 41): 560 mm3 and 844 mm3 and 0 mm3 and 540 mm3 and 634 mm3 and 293 mm3; Mean tumour volume (Day 45): 577 mm^3; Median tumour volume (Day 45): 577 mm^3; Individual tumour volume (Day 45): 918 mm3 and 1256 mm3 and 0 mm3 and 624 mm3 and 731 mm3 and 392 mm3; Mean tumour volume (Day 48): 664 mm^3; Median tumour volume (Day 48): 620 mm^3; Individual tumour volume (Day 48): 912 mm3 and 1672 mm3 and 0 mm3 and 551 mm3 and 833 mm3 and 381 mm3 and 689 mm3; Mean tumour volume (Day 51): 832 mm^3; Median tumour volume (Day 51): 712 mm^3; Individual tumour volume (Day 51): 1485 mm3 and 2035 mm3 and 0 mm3 and 587 mm3 and 900 mm3 and 462 mm3 and 837 mm3; Individual tumour volume (Day 55): 2080 mm3 and 0 mm3 and 990 mm3 and 1084 mm3 and 600 mm3 and 1309 mm3; Individual tumour volume (Day 58): 0 mm3 and 1482 mm3 and 1350 mm3 and 842 mm3 and 1665 mm3; Individual tumour volume (Day 62): 0 mm3 and 1080 mm3 and 1440 mm3 and 640 mm3 and 2057 mm3; Individual tumour volume (Day 66): 0 mm3 and 1695 mm3 and 1512 mm3 and 666 mm3; Individual tumour volume (Day 69): 0 mm3 and 1788 mm3 and 1496 mm3 and 950 mm3; Individual tumour volume (Day 73): 0 mm3 and 1820 mm3 and 1559 mm3 and 1018 mm3; Individual tumour volume (Day 76): 0 mm3 and 2296 mm3 and 1238 mm3 and 1140 mm3; Individual tumour volume (Day 80): 0 mm3 and 1520 mm3 and 1254 mm3; Individual tumour volume (Day 83): 0 mm3 and 1615 mm3 and 1463 mm3; Anti-tumour activity (in words) (paclitaxel study): significant anti-tumour activity; also recorded: anti-tumour effect greater than that of paclitaxel; T/C ratio (relative to control group, Day 13 (before treatment)): 95%; T/C ratio (relative to control group, Day 20): 57%; T/C ratio (relative to control group, Day 24): 28%; T/C ratio (relative to control group, Day 27): 25%; T/C ratio (relative to control group, Day 31): 21%; T/C ratio (relative to control group, Day 35): 27%; T/C ratio (relative to control group, Day 41): 29%; T/C ratio (relative to control, after D20 up to D41 (b191 prints D40)): less than 29%; T/C ratio (relative to paclitaxel group, Day 13 (before treatment)): 98%; T/C ratio (relative to paclitaxel group, Day 20): 47%; T/C ratio (relative to paclitaxel group, Day 24): 35%; T/C ratio (relative to paclitaxel group, Day 27): 38%; T/C ratio (relative to paclitaxel group, Day 31): 39%; T/C ratio (relative to paclitaxel group, Day 35): 32%
